Reference: the NIST ThermoML archive (doi:10.1021/acs.jced.6b00496)
Numbers after ± are expanded uncertainties.

Experiment: xn = mol fraction of the nth substance listed
Settings: 81.5 kPa, Liquid; for mass density: Vibrating tube method; for speed of sound: Sing-around technique in a fixed-path interferometer

CCn1cc[n+](C)c1.F[B-](F)(F)F [1-ethyl-3-methylimidazolium tetrafluoroborate] + CN(C)C=O
mass density (318.15 K, x1 = 0.0997): 996.709 ± 4 kg/m3 | mass density (318.15 K, x1 = 0.2042): 1053.89 ± 4.2 kg/m3 | mass density (318.15 K, x1 = 0.2983): 1095.88 ± 4.4 kg/m3 | mass density (318.15 K, x1 = 0.4111): 1137.12 ± 4.6 kg/m3 | mass density (318.15 K, x1 = 0.5003): 1164.76 ± 4.7 kg/m3 | mass density (318.15 K, x1 = 0.585): 1187 ± 4.8 kg/m3 | mass density (318.15 K, x1 = 0.6965): 1211.89 ± 4.9 kg/m3 | mass density (318.15 K, x1 = 0.7833): 1227.91 ± 5 kg/m3 | mass density (318.15 K, x1 = 0.9134): 1248.58 ± 5.1 kg/m3 | mass density (318.15 K, x1 = 1): 1267.03 ± 5.2 kg/m3 | speed of sound (323.15 K, x1 = 0.0997): 1418.1 ± 3.1 m/s | speed of sound (323.15 K, x1 = 0.2042): 1453.8 ± 3.1 m/s | speed of sound (323.15 K, x1 = 0.2983): 1479.3 ± 3.2 m/s | speed of sound (323.15 K, x1 = 0.4111): 1503 ± 3.2 m/s | speed of sound (323.15 K, x1 = 0.5003): 1518.6 ± 3.3 m/s | speed of sound (323.15 K, x1 = 0.585): 1530.4 ± 3.3 m/s | speed of sound (323.15 K, x1 = 0.6965): 1542.9 ± 3.4 m/s | speed of sound (323.15 K, x1 = 0.7833): 1551.9 ± 3.5 m/s | speed of sound (323.15 K, x1 = 0.9134): 1561.7 ± 3.6 m/s | speed of sound (323.15 K, x1 = 1): 1570.6 ± 3.7 m/s | mass density (323.15 K, x1 = 0.0997): 992.209 ± 4 kg/m3 | mass density (323.15 K, x1 = 0.2042): 1049.59 ± 4.2 kg/m3 | mass density (323.15 K, x1 = 0.2983): 1091.72 ± 4.4 kg/m3 | mass density (323.15 K, x1 = 0.4111): 1133.08 ± 4.5 kg/m3 | mass density (323.15 K, x1 = 0.5003): 1160.79 ± 4.7 kg/m3 | mass density (323.15 K, x1 = 0.585): 1183.1 ± 4.8 kg/m3 | mass density (323.15 K, x1 = 0.6965): 1208.05 ± 4.9 kg/m3 | mass density (323.15 K, x1 = 0.7833): 1224.11 ± 5 kg/m3 | mass density (323.15 K, x1 = 0.9134): 1244.82 ± 5.1 kg/m3 | mass density (323.15 K, x1 = 1): 1263.3 ± 5.2 kg/m3 | speed of sound (328.15 K, x1 = 0.0997): 1400.7 ± 3.1 m/s | speed of sound (328.15 K, x1 = 0.2042): 1437.8 ± 3.1 m/s | speed of sound (328.15 K, x1 = 0.2983): 1464.2 ± 3.2 m/s | speed of sound (328.15 K, x1 = 0.4111): 1489 ± 3.2 m/s | speed of sound (328.15 K, x1 = 0.5003): 1505.2 ± 3.3 m/s | speed of sound (328.15 K, x1 = 0.585): 1517.6 ± 3.3 m/s | speed of sound (328.15 K, x1 = 0.6965): 1530.6 ± 3.4 m/s | speed of sound (328.15 K, x1 = 0.7833): 1540 ± 3.5 m/s | speed of sound (328.15 K, x1 = 0.9134): 1550.1 ± 3.6 m/s | speed of sound (328.15 K, x1 = 1): 1559.4 ± 3.7 m/s | mass density (328.15 K, x1 = 0.0997): 987.708 ± 4 kg/m3 | mass density (328.15 K, x1 = 0.2042): 1045.31 ± 4.2 kg/m3 | mass density (328.15 K, x1 = 0.2983): 1087.57 ± 4.4 kg/m3 | mass density (328.15 K, x1 = 0.4111): 1129.05 ± 4.5 kg/m3 | mass density (328.15 K, x1 = 0.5003): 1156.85 ± 4.6 kg/m3 | mass density (328.15 K, x1 = 0.585): 1179.21 ± 4.7 kg/m3 | mass density (328.15 K, x1 = 0.6965): 1204.22 ± 4.9 kg/m3 | mass density (328.15 K, x1 = 0.7833): 1220.32 ± 4.9 kg/m3 | mass density (328.15 K, x1 = 0.9134): 1241.07 ± 5.1 kg/m3 | mass density (328.15 K, x1 = 1): 1259.58 ± 5.2 kg/m3 | speed of sound (333.15 K, x1 = 0.0997): 1383.3 ± 3.1 m/s | speed of sound (333.15 K, x1 = 0.2042): 1421.8 ± 3.1 m/s | speed of sound (333.15 K, x1 = 0.2983): 1449.3 ± 3.2 m/s | speed of sound (333.15 K, x1 = 0.4111): 1475 ± 3.2 m/s | speed of sound (333.15 K, x1 = 0.5003): 1492 ± 3.3 m/s | speed of sound (333.15 K, x1 = 0.585): 1504.8 ± 3.3 m/s | speed of sound (333.15 K, x1 = 0.6965): 1518.4 ± 3.4 m/s | speed of sound (333.15 K, x1 = 0.7833): 1528.2 ± 3.5 m/s | speed of sound (333.15 K, x1 = 0.9134): 1538.7 ± 3.6 m/s | speed of sound (333.15 K, x1 = 1): 1548.2 ± 3.7 m/s | mass density (333.15 K, x1 = 0.0997): 983.204 ± 3.9 kg/m3 | mass density (333.15 K, x1 = 0.2042): 1041.01 ± 4.2 kg/m3 | mass density (333.15 K, x1 = 0.2983): 1083.42 ± 4.3 kg/m3 | mass density (333.15 K, x1 = 0.4111): 1125.03 ± 4.5 kg/m3 | mass density (333.15 K, x1 = 0.5003): 1152.91 ± 4.6 kg/m3 | mass density (333.15 K, x1 = 0.585): 1175.33 ± 4.7 kg/m3 | mass density (333.15 K, x1 = 0.6965): 1200.41 ± 4.8 kg/m3 | mass density (333.15 K, x1 = 0.7833): 1216.55 ± 4.9 kg/m3 | mass density (333.15 K, x1 = 0.9134): 1237.34 ± 5.1 kg/m3 | mass density (333.15 K, x1 = 1): 1255.88 ± 5.2 kg/m3 | speed of sound (338.15 K, x1 = 0.0997): 1366.1 ± 3.1 m/s | speed of sound (338.15 K, x1 = 0.2042): 1405.9 ± 3.1 m/s | speed of sound (338.15 K, x1 = 0.2983): 1434.5 ± 3.2 m/s | speed of sound (338.15 K, x1 = 0.4111): 1461.2 ± 3.2 m/s | speed of sound (338.15 K, x1 = 0.5003): 1478.9 ± 3.3 m/s | speed of sound (338.15 K, x1 = 0.585): 1492.2 ± 3.3 m/s | speed of sound (338.15 K, x1 = 0.6965): 1506.4 ± 3.4 m/s | speed of sound (338.15 K, x1 = 0.7833): 1516.5 ± 3.5 m/s | speed of sound (338.15 K, x1 = 0.9134): 1527.4 ± 3.6 m/s | speed of sound (338.15 K, x1 = 1): 1537.2 ± 3.7 m/s | mass density (338.15 K, x1 = 0.0997): 978.699 ± 3.9 kg/m3 | mass density (338.15 K, x1 = 0.2042): 1036.73 ± 4.1 kg/m3 | mass density (338.15 K, x1 = 0.2983): 1079.28 ± 4.3 kg/m3 | mass density (338.15 K, x1 = 0.4111): 1121.03 ± 4.5 kg/m3 | mass density (338.15 K, x1 = 0.5003): 1148.99 ± 4.6 kg/m3 | mass density (338.15 K, x1 = 0.585): 1171.47 ± 4.7 kg/m3 | mass density (338.15 K, x1 = 0.6965): 1196.61 ± 4.8 kg/m3 | mass density (338.15 K, x1 = 0.7833): 1212.8 ± 4.9 kg/m3 | mass density (338.15 K, x1 = 0.9134): 1233.63 ± 5 kg/m3 | mass density (338.15 K, x1 = 1): 1252.2 ± 5.2 kg/m3 | speed of sound (343.15 K, x1 = 0.0997): 1348.9 ± 3.1 m/s | speed of sound (343.15 K, x1 = 0.2042): 1390.2 ± 3.1 m/s | speed of sound (343.15 K, x1 = 0.2983): 1419.8 ± 3.2 m/s | speed of sound (343.15 K, x1 = 0.4111): 1447.5 ± 3.2 m/s | speed of sound (343.15 K, x1 = 0.5003): 1465.8 ± 3.3 m/s | speed of sound (343.15 K, x1 = 0.585): 1479.7 ± 3.3 m/s | speed of sound (343.15 K, x1 = 0.6965): 1494.4 ± 3.4 m/s | speed of sound (343.15 K, x1 = 0.7833): 1504.9 ± 3.5 m/s | speed of sound (343.15 K, x1 = 0.9134): 1516.1 ± 3.6 m/s | speed of sound (343.15 K, x1 = 1): 1526.2 ± 3.7 m/s | mass density (343.15 K, x1 = 0.0997): 974.184 ± 3.9 kg/m3 | mass density (343.15 K, x1 = 0.2042): 1032.45 ± 4.1 kg/m3 | mass density (343.15 K, x1 = 0.2983): 1075.15 ± 4.3 kg/m3 | mass density (343.15 K, x1 = 0.4111): 1117.03 ± 4.5 kg/m3 | mass density (343.15 K, x1 = 0.5003): 1145.07 ± 4.6 kg/m3 | mass density (343.15 K, x1 = 0.585): 1167.62 ± 4.7 kg/m3 | mass density (343.15 K, x1 = 0.6965): 1192.82 ± 4.8 kg/m3 | mass density (343.15 K, x1 = 0.7833): 1209.06 ± 4.9 kg/m3 | mass density (343.15 K, x1 = 0.9134): 1229.93 ± 5 kg/m3 | mass density (343.15 K, x1 = 1): 1248.54 ± 5.2 kg/m3
